# Experimental data: patent publication US11230535B2, “CFTR regulators and methods of use thereof” (THE REGENTS OF THE UNIVERSITY OF CALIFORNIA, priority 2015, dated 2022)
# “Also recorded” adds a separate entry of the source.
# Assays:
# [1] = target: T1, TMEM16A (Homo sapiens, UniProt Q5XXA6); experiment: TMEM16A plate reader assay in FRT cells expressing YFP and TMEM16A; format: cell-based; conditions: 10 μM
# T1 construct: expressed in transfected cells; host or cells: Fischer rat thyroid (FRT) cells stably co-expressing YFP-H148Q
# T1 sequence (Q5XXA6 1-986): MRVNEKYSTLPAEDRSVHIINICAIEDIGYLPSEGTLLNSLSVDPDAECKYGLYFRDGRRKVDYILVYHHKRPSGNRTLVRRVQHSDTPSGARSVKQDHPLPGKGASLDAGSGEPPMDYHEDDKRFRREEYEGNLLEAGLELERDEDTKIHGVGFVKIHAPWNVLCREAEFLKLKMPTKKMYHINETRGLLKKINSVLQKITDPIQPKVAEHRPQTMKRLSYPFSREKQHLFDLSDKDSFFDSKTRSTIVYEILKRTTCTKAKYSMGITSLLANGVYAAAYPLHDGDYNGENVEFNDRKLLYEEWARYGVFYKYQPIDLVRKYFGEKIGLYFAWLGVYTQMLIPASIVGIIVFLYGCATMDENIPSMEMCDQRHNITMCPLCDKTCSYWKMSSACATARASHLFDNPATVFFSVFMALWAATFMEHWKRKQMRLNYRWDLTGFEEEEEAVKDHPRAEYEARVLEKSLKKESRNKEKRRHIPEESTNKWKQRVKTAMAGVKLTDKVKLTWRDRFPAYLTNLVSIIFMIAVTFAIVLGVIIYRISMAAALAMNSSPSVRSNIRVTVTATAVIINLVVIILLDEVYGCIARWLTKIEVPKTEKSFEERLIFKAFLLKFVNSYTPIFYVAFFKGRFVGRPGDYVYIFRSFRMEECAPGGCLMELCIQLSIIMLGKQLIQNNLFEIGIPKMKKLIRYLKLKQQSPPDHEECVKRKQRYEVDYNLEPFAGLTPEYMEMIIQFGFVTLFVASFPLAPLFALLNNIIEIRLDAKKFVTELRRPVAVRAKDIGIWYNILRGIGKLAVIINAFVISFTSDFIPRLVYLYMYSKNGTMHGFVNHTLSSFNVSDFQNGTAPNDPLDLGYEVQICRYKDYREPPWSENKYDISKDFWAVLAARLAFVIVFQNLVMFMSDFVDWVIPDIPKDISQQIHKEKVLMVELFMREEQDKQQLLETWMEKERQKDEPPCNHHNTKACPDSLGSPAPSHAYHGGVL
# Experimental: Platereader assays of chloride channel function. CFTR activity was assayed as described. FRT cells co-expressing YFP and wildtype CFTR were washed with phosphate-buffered saline (PBS) and then incubated for 10 min with test compounds in PBS containing 125 nM forskolin. I^− influx was measured in a plate reader with initial baseline read for 2 s and then for 12 s after rapid addition of an I^−-containing solution. TMEM16A activity was assayed similarly as described using FRT cells co-expressing YFP and TMEM16A. Activity of non-TMEM16A CaCC was assayed as described in HT-29 cells expressing YFP. In each assay initial rates of I^− influx were computed as a linear measure of channel function.
# [2] = system: human bronchial epithelial (HBE) cells; experiment: Short-circuit current in primary human bronchial epithelial (HBE) cells; format: cell-based; conditions: for short-circuit current responses to ENaC, maximal forskolin or ATP: 10 μM, 10 min pretreatment
# Experimental: FIGS. 16A-16E. Characterization of 6k and 12. FIG. 16A. Cellular cAMP in FRT cells following incubation for 10 min with 10 μM 6k or 12, without or with 90 nM forskolin (fsk), as well as forskolin alone (90 nM and 20 μM) and forskolin (20 μM)+IBMX (100 μM) (mean±S.E.M., n=4). FIG. 16B. Cytoplasmic calcium measured by Fluo-4 fluorescence. FRT cells were pretreated for 5 min with 10 μM 6k or 12 (or control), with 100 μM ATP added as a calcium agonist as indicated. FIG. 16C. TMEM16A activity measured in FRT cells expressing YFP showing no inhibition (left, iodide+ATP addition) or activation (right, iodide addition) by 10 μM 6k or 12. FIG. 16D. […] FIG. 16E. (left) Short circuit-current in primary cultures of human bronchial epithelial cells in response to agonists and inhibitors that target key ion transport processes: 20 μM amiloride (ami); 20 μM forskolin (fsk); 10 μM CFTRinh-172; 100 μM ATP. Experiments were done without activator or following 10-min preincubation with 10 μM 6k or 12 (right). CFTR activation by 12 after 100 nM forskolin (20 μM amil, 10 μM CFTRinh-172, 100 μM ATP). Studies in B-E are representative of 2-4 separate sets of experiments.
# Short-circuit current measurement. Short-circuit current measurements were done as described. Briefly, Snapwell (Corning Costar, Corning, N.Y.) inserts containing CFTR-expressing FRT cells or human bronchial epithelial cells were mounted in Ussing chambers (Physiological Instruments, San Diego, Calif.). For FRT cells the hemichambers were filled with 5 ml of HCO3^−-buffered solution (basolateral) and half-Cl^− solution (apical), and the basolateral membrane was permeabilized with 250 μg/ml amphotericin B. Symmetrical HCO3^−-buffered solutions were used for human bronchial epithelial cells. Solutions were bubbled with 95% O2/5% CO2 and maintained at 37° C., and short-circuit current was measured on a DVC-1000 voltage clamp (World Precision Instruments Inc., Sarasota, Fla.) using Ag/AgCl electrodes and 3 M KCl agar bridges.
# [3] = Compound accumulation in systemic tissues after 14 days topical dosing; format: in vivo, mouse; conditions: for amount in mouse blood, brain, liver and kidney (below limit of detection): two weeks, three times per day topical 0.1 nmol
# [4] = system: mice; experiment: Ocular toxicity after chronic topical dosing (slit-lamp, lissamine green staining); format: in vivo; conditions: two weeks, three times per day topical
# Experimental: (§1) To assess corneal epithelial disruption, 5 μL of lissamine green (LG) dye (1%) was applied to the ocular surface of isofluorane-anesthetized mice. Photographs of the eye were taken using a Nikon Digital camera adapted to an Olympus Zoom Stereo Microscope (Olympus, Center Valley, Pa., USA). Each corneal quadrant was scored on a 3-point scale by one blinded, trained observer, with the extent of staining in each quadrant classified as: 0, no staining; 1, sporadic (involving <25% of the total surface) staining; grade 2, diffuse punctate staining (25-75%); and grade 3, coalesced punctate staining (≥75%). The total grade is reported as the sum of scores from all four quadrants, ranging from 0 to 12.
# as §1, with “Lissamine green staining. To” for “To”
Structure (SMILES),effect on calcium-activated chloride channels in TMEM16A-expressing FRT cells [1],"short-circuit current responses to ENaC, maximal forskolin or ATP [2]","amount in mouse blood, brain, liver and kidney (below limit of detection) [3] [fmol]",LG staining after chronic dosing [4],"ocular toxicity (slit-lamp: conjunctival hyperemia, anterior chamber inflammation, lens clarity) [4]","systemic absorption, in words ([3]; topical)","CFTR activation in HBE cells after forskolin ([2]; 0.1 μM, following 100 nM forskolin)",CFTR activation in HBE cells without forskolin ([2]; absence of basal CFTR phosphorylation)
"CCN(CC)c1nc(Nc2ccc3ncsc3c2)nc(OC(C(F)(F)F)C(F)(F)F)n1 [6k, N′-(1,3-Benzothiazol-6-yl)-N,N-diethyl-6-[(1,1,1,3,3,3-hexafluoropropan-2-yl)oxy]-1,3,5-triazine-2,4-diamine]",no inhibition; also recorded: neither inhibited nor activated,did not alter short-circuit current responses,–,–,–,–,–,–
"Nc1ccc([N+](=O)[O-])cc1-c1nc2ccccc2n(Cc2ccccc2)c1=O [CFTRact-J027, 3-(2-amino-5-nitrophenyl)-1-benzylquinoxalin-2(1H)-one]",–,–,< 700,no corneal or conjunctival epithelial disruption,no signs of ocular toxicity,–,–,–
"CCN(CC)c1nc(Nc2ccccc2)nc(OC(C(F)(F)F)C(F)(F)F)n1 [CFTRact-K089, N,N-Diethyl-6-[(1,1,1,3,3,3-hexafluoropropan-2-yl)oxy]-N′-phenyl-1,3,5-triazine-2,4-diamine]",–,–,< 10,no corneal or conjunctival epithelial disruption,no signs of ocular toxicity,without detectable systemic absorption,–,–
"CNc1nc(Nc2ccccc2)nc(OCC(F)(F)C(F)F)n1 [compound 12, N-methyl-N′-phenyl-6-(2,2,3,3-tetrafluoropropoxy)-1,3,5-triazine-2,4-diamine]",no inhibition; also recorded: neither inhibited nor activated,did not alter short-circuit current responses,–,–,–,–,fully activated CFTR,did not activate CFTR
